Results from patent US10844101B2, “Plant-derived elastin binding protein ligands and methods of using the same” (ELASTOGENESIS, LLC, priority 2005, dated 2020).
“Also recorded” adds a separate entry of the source.

How the values were obtained:
human dermal fibroblasts = assay: Immunostaining with anti-tropoelastin antibody and morphometric analysis of elastic fiber deposition in 7-day dermal fibroblast cultures; format: cell-based; settings: for extracellular elastic fibers deposited (anti-tropoelastin immunostaining) / levels of intra- and extracellular tropoelastin (immunocytochemical staining): 7 days; for extracellular elastic fibers deposited (anti-tropoelastin immunostaining): fibroblasts, VGVAPG 5 μg/mL, EBPL-2 5 μg/mL, EBPL-3 10 μg/mL; for elastogenesis level compared with VGVAPG or EBPL-1 treated cultures: 7 day-old primary cultures of dermal fibroblasts; for more elastic fibers / tropoelastin than control cultures, maximally produced (quantitative morphometric analysis of immuno-detectable tropoelastin): maximum effect vs control
Method: In all experiments except those using CDBR, consecutive passages 3-7 were tested. Cells were incubated in the presence and absence of VGVAPG (SEQ ID NO. 1) (5 μg/mL), EBPL-2 (5 μg/mL) and EBPL-3 (10 μg/mL). In experiments using CDRB cell passage 3 was tested, cells were densely plated (50×10^6 cells/dish) to rich immediate confluency and than cultured for 7 days in the presence and absence of 25 μg/ml CDBR (added at day 1 and 3).

[1] = test system: human fibroblasts derived from normal human skin; assay: [3H]-valine metabolic labeling and assay of newly deposited NaOH-insoluble elastin in fibroblast cultures; format: cell-based; settings: [3H]-valine labeling 3 days; for net deposition of insoluble elastin, maximum over control values: expressed per culture dish, dose dependent
Method: Fibroblasts were densely plated (50×10^5/dish) and grown to confluency in 10 cm cell culture dishes in quadruplicate. 20 μCi of [^3H]-valine was added to each dish along with fresh media. Cultures were then incubated for 72 hours and insoluble elastin was assessed separately in each culture.

[2] = test system: elastin gene in adult dermal fibroblasts; assay: RT-PCR with specific tropoelastin probe (transcription of the elastin gene); format: cell-based, human; settings: serum-free medium and 10% FBS
Text: Using a BLAST search through the National Library of Medicine website, we identified the IGVAPG (SEQ ID NO. 13) domain in the amino acid sequence for a transcription factor of Japanese rice, which also reflects the common EBP-binding GXXPG (SEQ ID NO. 2) motif found in elastin and laminin. We used RT-PCR to measure transcription of the elastin gene by peptides of the invention.

dermal fibroblasts = assay: Cellular proliferation by [3H]-thymidine incorporation; format: cell-based, human; settings: dermal fibroblasts vs control
Text: Results of this calculation, showing a more profound effect of EBPL-2 on net deposition of insoluble elastin per culture, led to the hypothesis that EBPL-2, similarly to VGVAPG (SEQ ID NO. 1), also stimulates cellular proliferation.

human skin explants = assay: Organ cultures of human skin explants stained with Movat pentachrome stain; format: cell-based
[3] = adult dermal fibroblasts, 7 day old cultures
[4] = organ cultures of human skin biopsies

## VGVAPGAAAAAVGVAPG (Synthetic derived from Oryza sativa) [EBPL-1]
Human dermal fibroblasts
  extracellular elastic fibers deposited (anti-tropoelastin immunostaining): very thin extracellular elastic fibers at levels greater than the control levels

## IGVAPG (Synthetic derived from Oryza sativa) [EBPL-2]
Human dermal fibroblasts
  elastogenesis level compared with VGVAPG or EBPL-1 treated cultures: capable of inducing elastogenesis to the levels that exceed those obtained in cultures treated with VGVAPG; also recorded: higher net deposition of tropoelastin than their counterparts cultured with VGVAPG
  extracellular elastic fibers deposited (anti-tropoelastin immunostaining): deposition of thick extracellular elastic fibers
Human dermal fibroblasts; [3]
  more elastic fibers / tropoelastin than control cultures, maximally produced (quantitative morphometric analysis of immuno-detectable tropoelastin): 710%
Human dermal fibroblasts; adult dermal fibroblasts, 7 day old cultures, maximum vs maximum ProK-60
  more tropoelastin than maximum ProK-60-induced levels: 141%
Human dermal fibroblasts; adult dermal fibroblasts
  levels of intra- and extracellular tropoelastin (immunocytochemical staining): enhanced levels of intra- and extracellular tropoelastin
[1]; 10 μg/mL, normalized per DNA content
  more radioactively labeled insoluble elastin as compared to non-treated fibroblasts: 36%
[1]
  net deposition of insoluble elastin, maximum over control values: 175%
[2]
  transcription of the elastin gene: increased transcription of the elastin gene
Dermal fibroblasts
  incorporation of [3H]-thymidine (cellular proliferation): higher than control incorporation of [^3H]-thymidine
Human skin explants; 10-day old organ cultures, person
  elastic fibers (black stain) in skin explant organ cultures: contained more elastic fibers
Human skin explants; [4]
  dilatation of existing dermal capillaries: stimulates dilatation of existing capillaries
  production of new elastic fibers by pericytes: stimulated production of new elastic fibers by pericytes

## IGVAPGAAAAAIGVAPG (Synthetic derived from Oryza sativa) [EBPL-3]
Human dermal fibroblasts
  elastogenesis level compared with VGVAPG or EBPL-1 treated cultures: capable of inducing elastogenesis to the levels that exceed those obtained in cultures treated with VGVAPG
  extracellular elastic fibers deposited (anti-tropoelastin immunostaining): deposition of thick extracellular elastic fibers

## VGVAPG (Synthetic derived from Oryza sativa) [elastin receptor ligand hexapeptide obtained from Sigma, reference compound]
Human dermal fibroblasts
  extracellular elastic fibers deposited (anti-tropoelastin immunostaining): very thin extracellular elastic fibers at levels greater than the control levels
Human dermal fibroblasts; [3]
  more elastic fibers / tropoelastin than control cultures, maximally produced (quantitative morphometric analysis of immuno-detectable tropoelastin): 457%
Human dermal fibroblasts; adult dermal fibroblasts
  levels of intra- and extracellular tropoelastin (immunocytochemical staining): enhanced levels of intra- and extracellular tropoelastin
[1]
  net deposition of insoluble elastin, maximum over control values: 109%
[2]
  transcription of the elastin gene: stimulated transcription
Dermal fibroblasts
  incorporation of [3H]-thymidine (cellular proliferation): higher than control incorporation of [^3H]-thymidine
